# Activity calls are given as the source filed them.
# Columns and labels:
# Protein RecA = target: T1, Protein RecA (Mycobacterium tuberculosis, UniProt P9WHJ3); experiment: Fluorescence Cell-Free Homogeneous Dose Retest to Identify Inhibitors of RecA-Intein Splicing Activity. [Related pubchem assays (depositor defined):AID2097, AID2223, AID489010, AID492950]; assay type: functional
# T1 sequence (P9WHJ3 whole entry): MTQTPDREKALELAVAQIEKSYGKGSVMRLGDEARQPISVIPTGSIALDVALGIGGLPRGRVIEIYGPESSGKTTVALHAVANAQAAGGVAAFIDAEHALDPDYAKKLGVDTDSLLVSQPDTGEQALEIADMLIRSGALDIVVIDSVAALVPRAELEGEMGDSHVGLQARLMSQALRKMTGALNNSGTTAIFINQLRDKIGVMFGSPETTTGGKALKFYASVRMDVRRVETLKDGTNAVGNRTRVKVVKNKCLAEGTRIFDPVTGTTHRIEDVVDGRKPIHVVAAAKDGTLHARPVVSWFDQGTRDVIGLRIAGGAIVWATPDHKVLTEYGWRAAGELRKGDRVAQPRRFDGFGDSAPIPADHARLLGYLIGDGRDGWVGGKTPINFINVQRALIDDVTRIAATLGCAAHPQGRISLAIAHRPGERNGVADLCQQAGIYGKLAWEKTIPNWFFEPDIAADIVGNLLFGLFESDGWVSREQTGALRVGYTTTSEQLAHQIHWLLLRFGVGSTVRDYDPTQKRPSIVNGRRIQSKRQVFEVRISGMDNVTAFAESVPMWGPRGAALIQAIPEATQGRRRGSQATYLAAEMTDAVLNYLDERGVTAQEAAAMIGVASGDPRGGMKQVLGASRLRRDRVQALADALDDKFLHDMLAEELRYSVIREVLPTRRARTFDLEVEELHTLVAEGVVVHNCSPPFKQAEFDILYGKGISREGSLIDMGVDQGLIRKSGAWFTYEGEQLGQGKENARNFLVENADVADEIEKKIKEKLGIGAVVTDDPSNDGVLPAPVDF
# [1] = target: T2, Replicative DNA helicase DnaB (Mycobacterium tuberculosis, UniProt P9WMR3); experiment: DnaB intein splicing inhibitors, dose response, biochemical, cell-free fluorescence (AID 449749); assay type: functional
# T2 sequence (P9WMR3 whole entry): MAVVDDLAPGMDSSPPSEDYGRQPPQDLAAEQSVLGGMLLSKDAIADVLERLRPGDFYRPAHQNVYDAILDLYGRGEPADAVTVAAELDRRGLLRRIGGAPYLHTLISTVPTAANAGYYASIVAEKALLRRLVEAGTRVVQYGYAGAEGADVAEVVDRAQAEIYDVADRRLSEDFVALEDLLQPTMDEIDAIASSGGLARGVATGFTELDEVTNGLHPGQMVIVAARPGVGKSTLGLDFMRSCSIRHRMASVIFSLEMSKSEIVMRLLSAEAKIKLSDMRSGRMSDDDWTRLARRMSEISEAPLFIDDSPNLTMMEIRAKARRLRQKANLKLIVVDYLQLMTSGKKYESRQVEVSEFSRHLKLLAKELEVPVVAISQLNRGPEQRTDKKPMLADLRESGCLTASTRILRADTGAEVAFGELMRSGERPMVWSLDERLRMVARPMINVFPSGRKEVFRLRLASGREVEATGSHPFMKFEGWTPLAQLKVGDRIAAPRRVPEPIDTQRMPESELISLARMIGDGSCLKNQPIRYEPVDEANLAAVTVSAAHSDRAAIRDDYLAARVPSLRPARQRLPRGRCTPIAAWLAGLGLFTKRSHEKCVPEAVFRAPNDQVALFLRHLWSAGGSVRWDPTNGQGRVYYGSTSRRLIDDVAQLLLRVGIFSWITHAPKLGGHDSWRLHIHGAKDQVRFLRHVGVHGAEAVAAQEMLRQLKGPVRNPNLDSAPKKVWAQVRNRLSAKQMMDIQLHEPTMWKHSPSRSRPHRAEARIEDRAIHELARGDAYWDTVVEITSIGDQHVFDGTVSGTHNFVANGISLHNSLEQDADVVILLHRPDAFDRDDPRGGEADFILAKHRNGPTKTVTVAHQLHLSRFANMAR
# Genome polyprotein = Genome polyprotein (dengue virus type 2, UniProt P29990); experiment: Dengue-2 NS5 methyltransferase inhibitors, primary screen, biochemical, confirmation dose response (AID 588689); assay type: functional
# [2] = target: Glyceraldehyde-3-phosphate dehydrogenase (Homo sapiens, UniProt P04406)
# [3] = inhibitors of intracellular T. cruzi replication, confirmation, NIH3T3 host cells, beta-gal luminescence (AID 2044); assay type: functional, cell-based;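 also: intracellular parasites grown in NIH/3T3 mouse fibroblasts as host cells; luminescent beta-galactosidase reporter signal from transgenic T. cruzi replicating inside host cells; inhibitors lower the luminescence signal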
# [4] = cytotoxicity toward NIH3T3 fibroblasts, dose response, counter-screen, cell-based, ATP luminescence, mouse fibroblasts (AID 2010); assay type: functional;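 also: cells exposed to compound for about 90 hours before reading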
# [5] = target: DNA dC->dU-editing enzyme APOBEC-3G (Homo sapiens, UniProt Q9HC16); experiment: Dose Response confirmation of small molecule APOBEC3G DNA Deaminase Inhibitors via a fluorescence-based single-stranded DNA deaminase assay. [Related pubchem assays (depositor defined):AID493012, AID493028]; assay type: functional
# Fatty acid synthase [6] = target: T3, Fatty acid synthase (Homo sapiens, UniProt P49327); experiment: FAS thioesterase domain inhibitors, dose response, biochemical, endpoint fluorescence intensity, uHTS hits (AID 624327); assay type: functional;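 also: fluorescence from hydrolysis of an O-methyl fluorescein acyl ester substrate by the enzyme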
# Fatty acid synthase [7] = target: T3, Fatty acid synthase; experiment: FAS thioesterase domain inhibitors, dose response, biochemical, kinetic fluorescence intensity (AID 624326); assay type: functional;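 also: rate of fluorescence rise from hydrolysis of a fluorogenic O-methyl fluorescein ester substrate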
# [8] = target: T4, Rac GTPase-activating protein 1 (Homo sapiens, UniProt Q9H0H5); experiment: MgcRacGAP GTPase-activating activity inhibitors, confirmation, biochemical, ADP Hunter fluorescence, primary and confirmatory (AID 624330); assay type: functional
# T4 sequence (Q9H0H5 whole entry): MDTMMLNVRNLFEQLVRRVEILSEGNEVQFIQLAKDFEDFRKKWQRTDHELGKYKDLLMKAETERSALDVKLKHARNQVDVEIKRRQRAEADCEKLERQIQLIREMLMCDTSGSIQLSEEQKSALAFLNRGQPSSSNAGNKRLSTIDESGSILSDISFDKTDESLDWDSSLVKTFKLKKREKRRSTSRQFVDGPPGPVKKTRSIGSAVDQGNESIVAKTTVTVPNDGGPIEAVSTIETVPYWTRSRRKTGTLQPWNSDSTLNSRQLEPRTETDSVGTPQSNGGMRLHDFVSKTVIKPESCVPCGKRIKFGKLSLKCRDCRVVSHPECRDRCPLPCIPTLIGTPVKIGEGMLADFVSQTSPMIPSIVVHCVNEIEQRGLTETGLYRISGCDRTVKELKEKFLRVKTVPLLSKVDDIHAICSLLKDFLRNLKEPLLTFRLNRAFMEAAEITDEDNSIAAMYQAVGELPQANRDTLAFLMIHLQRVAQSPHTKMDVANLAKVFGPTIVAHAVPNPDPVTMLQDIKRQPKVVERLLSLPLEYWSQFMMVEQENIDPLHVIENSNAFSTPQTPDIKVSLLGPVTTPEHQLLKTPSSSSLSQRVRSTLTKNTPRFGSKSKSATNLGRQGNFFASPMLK
# [9] = HeLa cell cytotoxicity, dose response, cytotoxicity control for MgcRacGAP inhibitor project (AID 624300); assay type: functional
# Vero [10] = experiment: cells; assay type: functional, cell-based; conditions: Chlorocebus sabaeus
# Vero [11] = experiment: cells; assay type: functional; conditions: Chlorocebus sabaeus
# [12] = intracellular Trypanosoma cruzi inhibitors in host cells – cell-based, plate reader, cherry-pick samples, set 3, dose response (AID 651818); assay type: functional;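 also: compounds incubated with infected cells for about four days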
# [13] = P. falciparum ATP4 D1247Y mutant growth inhibitors, dose response, NITD609-resistant line, SYBR Green, dry powder (AID 1159571); assay type: functional, cell-based;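 also: parasites synchronized at ring stage by sorbitol before testing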
# [14] = P. falciparum Dd2 growth inhibitors, dose response, SYBR Green, dry powder samples (AID 1159566); assay type: functional, cell-based;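 also: potency for growth inhibition with lower SYBR green DNA signal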
# [15] = P. falciparum Dd2 growth inhibitors, dose response, SYBR Green, cherry-picked samples (AID 1159567); assay type: functional, cell-based
# [16] = P. falciparum 3D7-ScDHODH growth inhibitors, dose response, SYBR Green, dry powder samples (AID 1159570); assay type: functional, cell-based;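 also: parasite growth measured after 72 hours of compound exposure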
# T3 sequence (P49327 whole entry, the tested form may be a part): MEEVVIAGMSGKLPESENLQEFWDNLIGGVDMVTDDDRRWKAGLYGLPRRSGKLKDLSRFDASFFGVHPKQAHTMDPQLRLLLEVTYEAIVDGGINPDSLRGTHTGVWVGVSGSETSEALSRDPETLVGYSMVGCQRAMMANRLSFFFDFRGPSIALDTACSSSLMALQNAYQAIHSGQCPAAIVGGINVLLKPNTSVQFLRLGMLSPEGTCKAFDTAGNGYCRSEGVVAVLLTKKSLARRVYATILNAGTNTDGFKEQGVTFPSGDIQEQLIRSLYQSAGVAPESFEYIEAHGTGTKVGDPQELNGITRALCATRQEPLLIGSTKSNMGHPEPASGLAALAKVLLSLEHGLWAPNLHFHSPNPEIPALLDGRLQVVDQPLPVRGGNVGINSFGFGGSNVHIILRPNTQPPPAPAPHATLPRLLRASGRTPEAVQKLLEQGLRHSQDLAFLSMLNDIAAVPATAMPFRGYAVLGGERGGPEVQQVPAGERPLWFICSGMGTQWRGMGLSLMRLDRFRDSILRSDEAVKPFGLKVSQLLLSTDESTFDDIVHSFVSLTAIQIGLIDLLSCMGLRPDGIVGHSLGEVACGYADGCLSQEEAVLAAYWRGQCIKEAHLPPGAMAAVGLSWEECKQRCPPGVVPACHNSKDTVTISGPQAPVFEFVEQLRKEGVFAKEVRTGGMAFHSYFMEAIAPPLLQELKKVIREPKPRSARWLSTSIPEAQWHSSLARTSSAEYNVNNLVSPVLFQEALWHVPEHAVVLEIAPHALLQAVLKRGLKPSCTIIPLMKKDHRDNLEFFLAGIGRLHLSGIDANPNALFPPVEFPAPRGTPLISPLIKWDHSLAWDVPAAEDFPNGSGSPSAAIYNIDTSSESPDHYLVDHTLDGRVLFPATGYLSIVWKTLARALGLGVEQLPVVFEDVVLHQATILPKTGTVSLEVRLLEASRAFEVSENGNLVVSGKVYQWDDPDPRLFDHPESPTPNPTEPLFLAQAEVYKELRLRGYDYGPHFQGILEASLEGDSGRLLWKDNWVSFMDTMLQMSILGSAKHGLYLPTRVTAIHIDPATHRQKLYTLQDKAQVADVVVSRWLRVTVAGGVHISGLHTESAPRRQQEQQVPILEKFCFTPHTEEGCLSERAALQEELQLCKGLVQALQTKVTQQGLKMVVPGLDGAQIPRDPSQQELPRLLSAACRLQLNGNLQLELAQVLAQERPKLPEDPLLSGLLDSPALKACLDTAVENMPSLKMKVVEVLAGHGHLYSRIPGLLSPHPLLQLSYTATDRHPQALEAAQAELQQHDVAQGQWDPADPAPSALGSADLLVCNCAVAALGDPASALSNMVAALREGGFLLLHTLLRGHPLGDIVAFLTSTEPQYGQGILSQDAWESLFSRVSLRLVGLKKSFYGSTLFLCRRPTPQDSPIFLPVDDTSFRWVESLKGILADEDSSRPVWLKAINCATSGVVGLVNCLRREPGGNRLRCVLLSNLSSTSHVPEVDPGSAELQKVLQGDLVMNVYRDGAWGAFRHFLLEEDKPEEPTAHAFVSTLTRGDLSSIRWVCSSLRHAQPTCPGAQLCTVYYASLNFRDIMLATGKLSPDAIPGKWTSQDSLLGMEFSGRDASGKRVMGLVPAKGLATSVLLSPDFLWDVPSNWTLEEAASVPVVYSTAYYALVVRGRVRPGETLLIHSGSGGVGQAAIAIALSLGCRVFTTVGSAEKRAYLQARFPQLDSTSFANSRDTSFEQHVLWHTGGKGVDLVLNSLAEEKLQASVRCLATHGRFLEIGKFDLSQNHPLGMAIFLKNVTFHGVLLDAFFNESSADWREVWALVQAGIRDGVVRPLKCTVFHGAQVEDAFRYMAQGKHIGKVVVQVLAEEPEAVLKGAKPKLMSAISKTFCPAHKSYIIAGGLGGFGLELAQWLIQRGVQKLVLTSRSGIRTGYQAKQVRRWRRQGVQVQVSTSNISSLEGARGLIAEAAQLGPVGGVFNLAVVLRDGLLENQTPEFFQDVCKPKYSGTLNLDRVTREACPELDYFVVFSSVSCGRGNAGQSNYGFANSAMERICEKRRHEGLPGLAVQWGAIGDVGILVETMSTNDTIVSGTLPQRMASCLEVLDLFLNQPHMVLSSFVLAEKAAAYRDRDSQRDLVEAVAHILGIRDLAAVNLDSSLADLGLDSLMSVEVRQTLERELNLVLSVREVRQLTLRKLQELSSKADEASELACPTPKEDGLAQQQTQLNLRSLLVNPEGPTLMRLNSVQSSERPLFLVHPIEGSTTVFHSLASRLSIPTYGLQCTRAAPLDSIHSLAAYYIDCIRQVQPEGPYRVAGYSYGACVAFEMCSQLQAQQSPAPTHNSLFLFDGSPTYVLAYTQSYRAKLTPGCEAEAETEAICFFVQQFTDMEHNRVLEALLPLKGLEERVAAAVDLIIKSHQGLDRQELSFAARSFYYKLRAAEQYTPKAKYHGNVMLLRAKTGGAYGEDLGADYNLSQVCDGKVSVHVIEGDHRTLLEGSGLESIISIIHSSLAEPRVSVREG
# Chain of DNA dC->dU-editing enzyme APOBEC-3G (Q9HC16 whole entry, the tested form may be a part): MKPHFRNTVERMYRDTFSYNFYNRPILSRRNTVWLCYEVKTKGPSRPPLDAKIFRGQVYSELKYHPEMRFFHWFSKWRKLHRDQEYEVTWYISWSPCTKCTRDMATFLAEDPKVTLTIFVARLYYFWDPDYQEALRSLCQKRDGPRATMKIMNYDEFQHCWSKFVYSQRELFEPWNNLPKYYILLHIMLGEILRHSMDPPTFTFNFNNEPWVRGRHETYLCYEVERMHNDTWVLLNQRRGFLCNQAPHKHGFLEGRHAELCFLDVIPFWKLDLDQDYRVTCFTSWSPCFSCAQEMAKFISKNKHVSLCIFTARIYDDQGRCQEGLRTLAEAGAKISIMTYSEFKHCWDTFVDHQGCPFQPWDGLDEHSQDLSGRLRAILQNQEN
# Chain of Glyceraldehyde-3-phosphate dehydrogenase (P04406 whole entry): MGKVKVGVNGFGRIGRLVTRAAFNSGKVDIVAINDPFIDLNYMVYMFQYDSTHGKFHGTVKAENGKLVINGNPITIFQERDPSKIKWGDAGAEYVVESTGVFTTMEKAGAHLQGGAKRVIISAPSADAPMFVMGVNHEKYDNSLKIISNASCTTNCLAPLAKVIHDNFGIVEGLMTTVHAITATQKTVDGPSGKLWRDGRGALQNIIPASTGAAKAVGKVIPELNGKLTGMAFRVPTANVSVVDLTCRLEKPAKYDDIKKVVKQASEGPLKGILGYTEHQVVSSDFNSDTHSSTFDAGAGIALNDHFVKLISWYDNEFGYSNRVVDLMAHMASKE
# Chain of Genome polyprotein (P29990 2492-3391 limits assumed): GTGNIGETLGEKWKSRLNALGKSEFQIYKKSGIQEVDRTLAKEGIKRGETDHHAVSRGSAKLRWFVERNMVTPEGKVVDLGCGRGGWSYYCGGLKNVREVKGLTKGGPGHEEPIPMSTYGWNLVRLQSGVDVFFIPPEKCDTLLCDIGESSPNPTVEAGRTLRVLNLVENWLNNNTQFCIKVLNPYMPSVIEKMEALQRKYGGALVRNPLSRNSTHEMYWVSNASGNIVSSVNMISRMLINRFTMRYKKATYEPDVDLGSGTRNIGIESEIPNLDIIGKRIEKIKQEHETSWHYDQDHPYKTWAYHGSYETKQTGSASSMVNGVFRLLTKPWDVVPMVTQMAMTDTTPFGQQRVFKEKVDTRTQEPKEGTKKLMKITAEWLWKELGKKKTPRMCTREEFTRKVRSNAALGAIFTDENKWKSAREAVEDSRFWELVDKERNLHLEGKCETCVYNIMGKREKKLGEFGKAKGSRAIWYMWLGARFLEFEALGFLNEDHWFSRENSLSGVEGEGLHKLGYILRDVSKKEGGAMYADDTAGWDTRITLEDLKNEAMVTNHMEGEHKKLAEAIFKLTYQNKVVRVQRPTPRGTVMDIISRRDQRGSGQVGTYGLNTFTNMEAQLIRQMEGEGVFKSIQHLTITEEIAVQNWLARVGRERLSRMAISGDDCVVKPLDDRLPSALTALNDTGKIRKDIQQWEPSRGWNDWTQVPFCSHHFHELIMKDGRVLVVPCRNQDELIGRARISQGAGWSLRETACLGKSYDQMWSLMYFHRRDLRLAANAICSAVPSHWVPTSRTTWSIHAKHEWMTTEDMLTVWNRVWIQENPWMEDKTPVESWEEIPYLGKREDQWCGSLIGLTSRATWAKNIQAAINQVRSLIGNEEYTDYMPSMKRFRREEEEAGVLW
compound,measurement,setting,value
O=C(O)CN1C(=O)/C(=C\c2cccc(OCc3ccc(Cl)cc3Cl)c2)SC1=S,EC50,Protein RecA,11.1 µM (active)
same,AC50,[1],2.73 µM (active)
same,IC50,Genome polyprotein,36 µM (active)
O=C1C(Cl)=C(N2CCN(Cc3ccccc3)CC2)C(=O)N1c1ccc(Cl)nc1,IC50,[2],> 50 µM (inconclusive)
COc1ccc(-n2c(SCC(=O)C(C)(C)C)nc3c(sc(=S)n3-c3ccccc3)c2=O)c(OC)c1,EC50,[3],0.714 µM (active)
same,EC50,[4],> 60 µM (not active)
same,IC50,[5],66.5 µM (active)
Cc1ccc(C(=O)O/N=C(\N)Cc2cccs2)cc1[N+](=O)[O-],IC50,Fatty acid synthase [6],9.57 µM (active)
same,IC50,Fatty acid synthase [7],8.33 µM (active)
CN(C)C=O.O=C(O)c1ccccc1NS(=O)(=O)c1ccc(NN=Cc2ccc(F)cc2)c([N+](=O)[O-])c1,IC50,Fatty acid synthase [6],7.9 µM (active)
same,IC50,Fatty acid synthase [7],4.43 µM (active)
O=C(COC(=O)c1cc([N+](=O)[O-])ccc1Cl)NCCc1ccccc1,IC50,Fatty acid synthase [6],3.93 µM (active)
same,IC50,Fatty acid synthase [7],5.26 µM (active)
c1ccc2c(c1)Nc1ccncc1S2,IC50,[8],269 µM (active)
same,CC50,[9],100 µM (active)
CC1CCCN(CCOc2ccc3ccccc3c2Br)C1 (stereo unspecified),IC50,[8],142 µM (active)
same,CC50,[9],68.9 µM (active)
Cc1oc2c(c1C(=O)Nc1cccc(C(=O)O)c1)CCCC2,IC50,[2],> 100 µM (not active)
O=C(CSc1ncnc2c1cnn2-c1ccccc1)NC1CCCC1,IC50,Fatty acid synthase [6],5.94 µM (active)
same,IC50,Fatty acid synthase [7],5.67 µM (active)
CCc1c(C(=O)NC2CCCc3ccccc32)[nH]c(C)c1C(C)=O (stereo unspecified),IC50,Vero [10],9.95 µM (active)
same,CC50,Vero [11],> 25 µM (active)
O=C(CN(CC(=O)N1CCOCC1)S(=O)(=O)c1ccc(Br)s1)N1CCOCC1,IC50,[5],74.3 µM (active)
C[C@@H]1CN([C@H](C)CO)C(=O)Cc2cc(NC(=O)NC3CCCCC3)ccc2O[C@H]1CN(C)Cc1ccc(Oc2ccccc2)cc1,AC50,[12],3.58 µM (active)
C[C@H]1CN([C@@H](C)CO)C(=O)c2cc(NS(=O)(=O)c3ccc(F)cc3)ccc2O[C@@H]1CN(C)Cc1ccc(Cl)c(Cl)c1,AC50,[12],4.6 µM (active)
COc1ccc(S(=O)(=O)Nc2cccc3c2O[C@@H](CN(C)Cc2ccc(C(=O)Nc4ccccc4N)cc2)[C@H](C)CN([C@@H](C)CO)C3=O)cc1,AC50,[12],3.61 µM (active)
C[C@@H]1CCCCO[C@H](CN(C)C(=O)C2CCCCC2)[C@@H](C)CN([C@H](C)CO)C(=O)c2cc(NC(=O)Nc3ccc(C(F)(F)F)cc3)ccc2O1,AC50,[12],6.88 µM (active)
C[C@H](CO)N1C[C@H](C)[C@@H](CN(C)Cc2ccncc2)Oc2c(NC(=O)Nc3ccc(C(F)(F)F)cc3)cccc2C1=O,AC50,[12],2.97 µM (active)
C[C@H]1CN([C@@H](C)CO)C(=O)c2c(c3ccccc3n2C)-c2ccccc2CO[C@@H]1CN(C)C(=O)Nc1ccc(-c2ccccc2)cc1,AC50,[13],0.532 µM (active)
same,AC50,[14],0.507 µM (active)
same,AC50,[15],1.38 µM (active)
same,AC50,[16],0.787 µM (active)
C[C@H](CO)N1C[C@H](C)[C@H](CN(C)CC2CC2)Oc2ccc(NC(=O)Nc3ccccc3)cc2CC1=O,AC50,[13],4.64 µM (active)
same,AC50,[14],3.39 µM (active)
same,AC50,[15],2.08 µM (active)
same,AC50,[16],3.81 µM (active)
C[C@@H]1CN([C@@H](C)CO)C(=O)c2cccc(NC(=O)c3nc4ccccc4s3)c2O[C@H]1CN(C)C(=O)NC1CCCCC1,AC50,[13],1.05 µM (active)
same,AC50,[14],1.08 µM (active)
same,AC50,[15],1.37 µM (active)
same,AC50,[16],0.846 µM (active)
Cc1ccc2oc(=O)c3cnn(CC(=O)Nc4ccccc4N4CCN(C)CC4)c3c2c1,IC50,Vero [10],9.16 µM (active)

# — ChEMBL document CHEMBL1201862, “PubChem BioAssay data set” (2004)
